# Data published in ChEMBL document CHEMBL3044749, “Synthesis, characterization, in vitro hydrolysis and pharmacodynamic profiles of potential novel mutual prodrugs of N-(2,3-xylyl anthranilic acid)” (Med Chem Res, 2013).
# How the values were obtained:
# [1] = test system: Rattus norvegicus; experiment: Gastrointestinal toxicity in Wistar albino Rattus norvegicus (rat) assessed as ulcerogenicity index at 23 mg/kg, po administered for 7 days measured on day 8 (reference value: 0 no unit); format: organism-based; set-up: dose 23 mg/kg, route oral; conditions: in vivo, 168 h
# [2] = test system: Mus musculus; experiment: Analgesic activity in Swiss Mus musculus (mouse) assessed as inhibition of acetic acid-induced abdominal writhing at 23 mg/kg, po administered 1 hr prior to acetic acid injection measured for 10 min; format: functional; conditions: Abdomen
# [3] = test system: Rattus norvegicus; experiment: Anti-inflammatory activity in Wistar albino Rattus norvegicus (rat) assessed as inhibition of carrageenan-induced paw edema at 23 mg/kg, po administered 1 hr prior to carrageenan injection measured after 6 hr by mercury plethysmometer (reference value: 0%); format: functional
# [4] = test system: Rattus norvegicus; experiment: Anti-inflammatory activity in Wistar albino Rattus norvegicus (rat) assessed as inhibition of carrageenan-induced paw edema at 23 mg/kg, po administered 1 hr prior to carrageenan injection measured after 4 hr by mercury plethysmometer (reference value: 0%); format: functional
# [5] = test system: Rattus norvegicus; experiment: Anti-inflammatory activity in Wistar albino Rattus norvegicus (rat) assessed as inhibition of carrageenan-induced paw edema at 23 mg/kg, po administered 1 hr prior to carrageenan injection measured after 1 hr by mercury plethysmometer (reference value: 0%); format: functional
# [6] = test system: Rattus norvegicus; experiment: Anti-inflammatory activity in Wistar albino Rattus norvegicus (rat) assessed as inhibition of carrageenan-induced paw edema at 23 mg/kg, po administered 1 hr prior to carrageenan injection measured after 3 hr by mercury plethysmometer (reference value: 0%); format: functional
# [7] = test system: Rattus norvegicus; experiment: Anti-inflammatory activity in Wistar albino Rattus norvegicus (rat) assessed as inhibition of carrageenan-induced paw edema at 23 mg/kg, po administered 1 hr prior to carrageenan injection measured after 8 hr by mercury plethysmometer (reference value: 0%); format: functional
# [8] = test system: Rattus norvegicus; experiment: Anti-inflammatory activity in Wistar albino Rattus norvegicus (rat) assessed as inhibition of carrageenan-induced paw edema at 23 mg/kg, po administered 1 hr prior to carrageenan injection measured after 2 hr by mercury plethysmometer (reference value: 0%); format: functional
# [9] = test system: Rattus norvegicus; experiment: Anti-inflammatory activity in Wistar albino Rattus norvegicus (rat) assessed as inhibition of carrageenan-induced paw edema at 27.65 mg/kg, po administered 1 hr prior to carrageenan injection measured after 2 hr by mercury plethysmometer (reference value: 0%); format: functional
# [10] = test system: Rattus norvegicus; experiment: Anti-inflammatory activity in Wistar albino Rattus norvegicus (rat) assessed as inhibition of carrageenan-induced paw edema at 27.65 mg/kg, po administered 1 hr prior to carrageenan injection measured after 4 hr by mercury plethysmometer (reference value: 0%); format: functional
# [11] = test system: Rattus norvegicus; experiment: Anti-inflammatory activity in Wistar albino Rattus norvegicus (rat) assessed as inhibition of carrageenan-induced paw edema at 27.65 mg/kg, po administered 1 hr prior to carrageenan injection measured after 3 hr by mercury plethysmometer (reference value: 0%); format: functional
# [12] = test system: Rattus norvegicus; experiment: Anti-inflammatory activity in Wistar albino Rattus norvegicus (rat) assessed as inhibition of carrageenan-induced paw edema at 27.65 mg/kg, po administered 1 hr prior to carrageenan injection measured after 6 hr by mercury plethysmometer (reference value: 0%); format: functional
# [13] = test system: Mus musculus; experiment: Analgesic activity in Swiss Mus musculus (mouse) assessed as inhibition of acetic acid-induced abdominal writhing at 27.65 mg/kg, po administered 1 hr prior to acetic acid injection measured for 10 min; format: functional; conditions: Abdomen
# [14] = Half life in simulated gastrointestinal fluid at 37 degC at pH 1.2 by UV spectrophotometer analysis; format: ADME
# [15] = test system: Rattus norvegicus; experiment: Anti-inflammatory activity in Wistar albino Rattus norvegicus (rat) assessed as inhibition of carrageenan-induced paw edema at 27.65 mg/kg, po administered 1 hr prior to carrageenan injection measured after 8 hr by mercury plethysmometer (reference value: 0%); format: functional
# [16] = test system: Rattus norvegicus; experiment: Gastrointestinal toxicity in Wistar albino Rattus norvegicus (rat) assessed as ulcerogenicity index at 27.65 mg/kg, po administered for 7 days measured on day 8 (reference value: 0 no unit); format: organism-based; set-up: dose 27.65 mg/kg, route oral; conditions: in vivo, 168 h
# [17] = Half life in simulated intestinal fluid at 37 degC at pH 7.4 by UV spectrophotometer analysis; format: ADME
# [18] = Stability of the compound assessed as prodrug hydrolysis in non-enzymatic simulated gastric fluid at 37 degC at pH 1.2 measured for 2 hr by UV spectrophotometer analysis; format: physicochemical; conditions: simulated gi fluid, pH 1.2, 2 h
# [19] = test system: Rattus norvegicus; experiment: Anti-inflammatory activity in Wistar albino Rattus norvegicus (rat) assessed as inhibition of carrageenan-induced paw edema at 27.65 mg/kg, po administered 1 hr prior to carrageenan injection measured after 1 hr by mercury plethysmometer (reference value: 0%); format: functional
# [20] = test system: Rattus norvegicus; experiment: Anti-inflammatory activity in Wistar albino Rattus norvegicus (rat) assessed as inhibition of carrageenan-induced paw edema at 13 mg/kg, po administered 1 hr prior to carrageenan injection measured after 6 hr by mercury plethysmometer (reference value: 0%); format: functional
# [21] = test system: Rattus norvegicus; experiment: Anti-inflammatory activity in Wistar albino Rattus norvegicus (rat) assessed as inhibition of carrageenan-induced paw edema at 13 mg/kg, po administered 1 hr prior to carrageenan injection measured after 2 hr by mercury plethysmometer (reference value: 0%); format: functional
# [22] = test system: Rattus norvegicus; experiment: Gastrointestinal toxicity in Wistar albino Rattus norvegicus (rat) assessed as ulcerogenicity index at 13 mg/kg, po administered for 7 days measured on day 8 (reference value: 0 no unit); format: organism-based; set-up: dose 13 mg/kg, route oral; conditions: in vivo, 168 h
# [23] = test system: Rattus norvegicus; experiment: Anti-inflammatory activity in Wistar albino Rattus norvegicus (rat) assessed as inhibition of carrageenan-induced paw edema at 13 mg/kg, po administered 1 hr prior to carrageenan injection measured after 4 hr by mercury plethysmometer (reference value: 0%); format: functional
# [24] = test system: Rattus norvegicus; experiment: Anti-inflammatory activity in Wistar albino Rattus norvegicus (rat) assessed as inhibition of carrageenan-induced paw edema at 13 mg/kg, po administered 1 hr prior to carrageenan injection measured after 3 hr by mercury plethysmometer (reference value: 0%); format: functional
# [25] = test system: Rattus norvegicus; experiment: Anti-inflammatory activity in Wistar albino Rattus norvegicus (rat) assessed as inhibition of carrageenan-induced paw edema at 13 mg/kg, po administered 1 hr prior to carrageenan injection measured after 1 hr by mercury plethysmometer (reference value: 0%); format: functional
# [26] = test system: Rattus norvegicus; experiment: Anti-inflammatory activity in Wistar albino Rattus norvegicus (rat) assessed as inhibition of carrageenan-induced paw edema at 13 mg/kg, po administered 1 hr prior to carrageenan injection measured after 8 hr by mercury plethysmometer (reference value: 0%); format: functional
# [27] = test system: Mus musculus; experiment: Analgesic activity in Swiss Mus musculus (mouse) assessed as inhibition of acetic acid-induced abdominal writhing at 13 mg/kg, po administered 1 hr prior to acetic acid injection measured for 10 min; format: functional; conditions: Abdomen
# [28] = test system: Rattus norvegicus; experiment: Anti-inflammatory activity in Wistar albino Rattus norvegicus (rat) assessed as inhibition of carrageenan-induced paw edema at 24.65 mg/kg, po administered 1 hr prior to carrageenan injection measured after 8 hr by mercury plethysmometer (reference value: 0%); format: functional
# [29] = test system: Rattus norvegicus; experiment: Anti-inflammatory activity in Wistar albino Rattus norvegicus (rat) assessed as inhibition of carrageenan-induced paw edema at 24.65 mg/kg, po administered 1 hr prior to carrageenan injection measured after 6 hr by mercury plethysmometer (reference value: 0%); format: functional
# [30] = test system: Rattus norvegicus; experiment: Anti-inflammatory activity in Wistar albino Rattus norvegicus (rat) assessed as inhibition of carrageenan-induced paw edema at 24.65 mg/kg, po administered 1 hr prior to carrageenan injection measured after 2 hr by mercury plethysmometer (reference value: 0%); format: functional
# [31] = test system: Rattus norvegicus; experiment: Anti-inflammatory activity in Wistar albino Rattus norvegicus (rat) assessed as inhibition of carrageenan-induced paw edema at 24.65 mg/kg, po administered 1 hr prior to carrageenan injection measured after 3 hr by mercury plethysmometer (reference value: 0%); format: functional
# [32] = test system: Rattus norvegicus; experiment: Anti-inflammatory activity in Wistar albino Rattus norvegicus (rat) assessed as inhibition of carrageenan-induced paw edema at 24.65 mg/kg, po administered 1 hr prior to carrageenan injection measured after 1 hr by mercury plethysmometer (reference value: 0%); format: functional
# [33] = test system: Mus musculus; experiment: Analgesic activity in Swiss Mus musculus (mouse) assessed as inhibition of acetic acid-induced abdominal writhing at 24.65 mg/kg, po administered 1 hr prior to acetic acid injection measured for 10 min; format: functional; conditions: Abdomen
# [34] = test system: Rattus norvegicus; experiment: Anti-inflammatory activity in Wistar albino Rattus norvegicus (rat) assessed as inhibition of carrageenan-induced paw edema at 24.65 mg/kg, po administered 1 hr prior to carrageenan injection measured after 4 hr by mercury plethysmometer (reference value: 0%); format: functional
# [35] = test system: Rattus norvegicus; experiment: Gastrointestinal toxicity in Wistar albino Rattus norvegicus (rat) assessed as ulcerogenicity index at 24.65 mg/kg, po administered for 7 days measured on day 8 (reference value: 0 no unit); format: organism-based; set-up: dose 24.65 mg/kg, route oral; conditions: in vivo, 168 h
smiles,measurement,setting,value
CC(C)c1c(CO)n(C)n(-c2ccccc2)c1=O [3-HYDROXYMETHYL PROPYPHENAZONE],UI,[1],1.25
same,inhibition in vivo at 23 mg/kg,[2],78.3%
same,inhibition in vivo at 23 mg/kg,[3],23.7%
same,inhibition in vivo at 23 mg/kg,[4],31.2%
same,inhibition in vivo at 23 mg/kg,[5],31.5%
same,inhibition in vivo at 23 mg/kg,[6],40.2%
same,inhibition in vivo at 23 mg/kg,[7],12%
same,inhibition in vivo at 23 mg/kg,[8],46.4%
Cc1cccc(Nc2ccccc2C(=O)NCC(=O)OCc2c(C(C)C)c(=O)n(-c3ccccc3)n2C)c1C,inhibition in vivo at 27.65 mg/kg,[9],77.2%
same,inhibition in vivo at 27.65 mg/kg,[10],83.7%
same,inhibition in vivo at 27.65 mg/kg,[11],85.7%
same,inhibition in vivo at 27.65 mg/kg,[12],38.5%
same,inhibition in vivo at 27.65 mg/kg,[13],63.9%
same,half-life,[14],18.7 h
same,inhibition in vivo at 27.65 mg/kg,[15],10%
same,UI,[16],1
same,half-life,[17],8.98 h
same,Stability,[18],Stable
same,inhibition in vivo at 27.65 mg/kg,[19],23.3%
Cc1cccc(Nc2ccccc2C(=O)O)c1C [MEFENAMIC ACID],inhibition in vivo at 13 mg/kg,[20],24.3%
same,inhibition in vivo at 13 mg/kg,[21],52.2%
same,UI,[22],3.17
same,inhibition in vivo at 13 mg/kg,[23],35.6%
same,inhibition in vivo at 13 mg/kg,[24],53.1%
same,inhibition in vivo at 13 mg/kg,[25],38.4%
same,inhibition in vivo at 13 mg/kg,[26],20%
same,inhibition in vivo at 13 mg/kg,[27],61.1%
Cc1cccc(Nc2ccccc2C(=O)OCc2c(C(C)C)c(=O)n(-c3ccccc3)n2C)c1C,inhibition in vivo at 24.65 mg/kg,[28],44%
same,inhibition in vivo at 24.65 mg/kg,[29],62.9%
same,inhibition in vivo at 24.65 mg/kg,[30],59.1%
same,inhibition in vivo at 24.65 mg/kg,[31],71.4%
same,inhibition in vivo at 24.65 mg/kg,[32],13.3%
same,half-life,[14],16.2 h
same,inhibition in vivo at 24.65 mg/kg,[33],81.7%
same,inhibition in vivo at 24.65 mg/kg,[34],72.6%
same,half-life,[17],7.37 h
same,Stability,[18],Stable
same,UI,[35],0.25
